Laboratory results published in US9829488B2, “Paper-based cellular arrays” (President and Fellows of Havard College, priority 2008, dated 2017).

How the values were obtained:
[1] = system: PC-12 cells; assay: Neuronal differentiation of PC-12 cells in paper-supported MATRIGEL (confocal microscopy, neurites); type: cell-based, rat; settings: 6 days, 100 ng/mL NGF
Text: Next, we assessed whether PC-12 cells maintained in paper-supported three-dimensional matrices were differentiated into neurons using NGF-treatment. We spotted suspensions of PC12 cells in MATRIGEL™ onto paper and suspended the paper in the media supplemented with NGF or with a combination of NGF and the ROCK inhibitor Y27632. Confocal microscopy examination uncovered neuron-like cells with long neurites. The morphology of cells and length of neurites varied when different media/additives were used.

[2] = system: HUVEC; assay: Three-dimensional migration (invasion) of HUVEC cells in MATRIGEL-permeated paper; type: cell-based, human
Procedure: A suspension of cells in […]™ (1 μL, 10^7 cells/mL) was spotted onto paper, and the paper was immersed in […]™. […] Migration of the cells into the surrounding […]™ was monitored over time using a fluorescent gel scanner. […] The radius of the cell-containing spot served as the measure of the migration. Cell-containing sheets were suspended in endothelial culture media supplemented with 100 ng/mL VEGF (“VEGF”) or 10 μM of small molecule inhibitor of Rho kinase Y27632 (“Y27632”).

[3] = system: 3T3 fibroblasts; assay: Proliferation of 3T3 fibroblasts in MATRIGEL-permeated paper in 96-well plate (Alamar Blue); type: cell-based; settings: colchicine added to the wells
Text: One exemplary method is depicted in FIG. 8. In this method, a paper array of the same size is distributed to each well of the microtiter plate to ensure delivery of nearly identical number of cells per well (FIG. 8A). To illustrate this strategy, 2 mm×4 mm pieces of filter paper were permeated with suspension of 3T3 fibroblasts in MATRIGEL™ and then distributed into the wells of a 96-well plate. Alamar Blue was used to estimate the number of cells. […] 3T3 cells proliferated within MATRIGEL™-soaked paper but not within the MATRIGEL™-free paper (FIG. 8B), and this proliferation was halted when colchicine was added to the wells. This system, therefore, can be used to screen for agents that influence proliferation of cells in three-dimensional arrays.

[4] = system: PC-12 cells; assay: Quantitative PCR of neuronal transcripts NF-L and NPY in PC-12 cells; type: cell-based, rat; settings: 100 ng/mL, day 3 or 4, GAPDH as reference
Procedure: Finally, we compared the differentiation of PC-12 cells maintained in paper-supported MATRIGEL™ (“paper”) with that of cells in paper-free MATRIGEL™ (“3D”) or on MATRIGEL™ coated surfaces (“2D”).
Cells in these matrices were proliferated in serum-containing media or in media supplemented with 100 ng/mL NFG. On day 3 or 4, the samples were processed to isolate mRNA and the level of expression of NF-L or NPY were assessed by quantitative PCR. GAPDH and actin were used as housekeeping controls. ΔΔCT-analysis was performed in the linear range for every primer using GAPDH as a reference. In FIG. 14, each data point is an average of measurements from 3 independent samples. The error bar is one standard deviation.

[5] = system: PC-12 rat adrenal pheochromocytoma cell line; assay: Proliferation of PC-12 cells in MATRIGEL-permeated paper (phalloidin stain, gel scanner); type: cell-based; settings: serum-containing media, 100 ng/mL NGF
Procedure: First, we assessed the proliferation of PC-12 cells grown in paper in response to NGF. Suspensions of PC12 cells in MATRIGEL™ (1 uL, 5×10^6 cells/mL) were spotted onto filter paper. The paper was placed in serum-containing media (2.5% fetal bovine serum, 15% horse serum in F12K basal media) or serum-containing media supplemented with 100 ng/mL of nerve growth factor (NGF). Cells within paper MATRIGEL™ matrix were cultured for the indicated times, fixed with formaldehyde, and stained with Alexa Fluor 488-conjugated phalloidin. The paper was scanned using a Typhoon fluorescent gel scanner (see FIG. 13A). Error bars are one standard deviation.

With C[C@@H](N)[C@H]1CC[C@H](C(=O)Nc2ccncc2)CC1 [Y27632, reference compound] the “neurites developed by cells” value ([1]; serum-free media, 5 μM Y27632) was “extensive 3D network of interconnected neurites” and the “outgrowth of cells (migration into surrounding MATRIGEL)” value ([2]; endothelial culture media + 10 μM Y27632) was “promoted”.
For VEGF, the “radius of the invasion” value ([2]; EGM with additional 100 ng/mL VEGF, compared with EGM+10 μM Y27632) was “significantly lower”.
For COc1cc2c(c(OC)c1OC)-c1ccc(OC)c(=O)cc1[C@@H](NC(C)=O)CC2 [colchicine], the “proliferation of 3T3 cells within MATRIGEL-soaked paper” value [3] was “halted”.
With NGF: nerve growth factor the “neurites developed by cells” value ([1]; serum containing media) was “short neurites”, the “neurites developed by cells” value ([1]; serum-free media) was “longer neurites” and the “level of NF-L expression” value [4] was “induced”. The “level of NPY expression” value [4] was “induced” and the “effect on growth rate of the cells” value [5] was “little effect”.
